Data: patent US20260365611A1, “CRYSTALLINE SALTS OF 2-PHENYL-2-AMINOCYCLOHEXAN-1-ONE DERIVATIVES” (priority 2023, published 2026)
Counter-ions that a name gives are not always drawn. Like-named read-outs stand apart in the source and are kept apart here.

Key:
Assay type in all cases: physicochemical
[1] = Thermo-Gravimetric Analysis (TGA)
Protocol: In the examples below, the solids are analyzed by XRPD to determine if they are crystalline and if so, by DSC to determine melting point and TGA to determine if hydrated/solvated.

[2] = Crystal form conversion on drying
Protocol: About 0.25 mL of ethyl acetate was added to a glass vial containing about 40 mg of freebase (R)-2-(4-fluorophenyl)-2-(methylamino)cyclohexan-1-one. One molar equivalent of citric acid was added to the vial, and the contents were stirred at room temperature.

[3] = Approximate solubility in 20 solvents; settings: for solubility: RT
Protocol: The approximate solubility of the crystalline hydrochloride salt product of Example 1 (1R HCl Form 1) was estimated in 20 solvents as follows: Approximately 10 mg of the product of Example 1 is placed into a 4.0 mL vial, to which 25 μL of solvent at RT is added, and then the vial with its contents is shaken and stirred. If no clear solution is obtained, another 25 μL of solvent is added to the vial and then the vial with its contents is shaken and stirred again. This process is repeated until 4.0 mL solvent is added, and then the contents of the vial are stirred overnight.

[4] = Dynamic Vapor Sorption (DVS)
Protocol: 1R HCl Form 1 was analyzed by DVS (0-90-O-90-0% RH at 25 °C). The DVS behavior is shown in FIGS. 5(a) and (b), wherein 1 plots cycle 1 desorption, 2 plots cycle 2 sorption, 3 plots cycle 2 desorption, 4 plots cycle 1 sorption, 5 plots target % P/Po and 6 plots dm dry line, wherein P is the vapor pressure, Po is the saturation vapor pressure and P/Po is equivalent to % relative humidity for water.

[5] = Sublimation on heating; settings: heated up to 300 °C
Protocol: The Form 1 polymorph was heated up to 300 °C. […] Polymorph screening of the deuterated 1R HCl salt of Example 2 (Form 1).

[6] = drying in a vacuum oven at room temperature

CN[C@@]1(c2ccc(F)cc2)CCCCC1=O [Phos-2, (R)-2-(4-fluorophenyl)-2-(methylamino)cyclohexan-1-one Phos-2]
TGA weight loss ([1]; by 100 °C): about 0.90%

CN[C@@]1(c2ccc(F)cc2)CCCCC1=O [Tar-3, (R)-2-(4-fluorophenyl)-2-(methylamino)cyclohexan-1-one Tar-3]
TGA weight loss ([1]; room temperature to 125 °C): about 9.95%

CN[C@@]1(c2ccc(F)cc2)CCCCC1=O [Sulfate-3, (R)-2-(4-fluorophenyl)-2-(methylamino)cyclohexan-1-one Sulfate-3]
Crystal form conversion ([2]; further dried with heating at 40 °C): a different XRPD diffractogram was obtained

CN[C@@]1(c2ccc(F)cc2)CCCCC1=O [Cit-2, (R)-2-(4-fluorophenyl)-2-(methylamino)cyclohexan-1-one Cit-2]
TGA weight loss ([1]; room temperature to 100 °C): about 1.33%

CN[C@@]1(c2ccc(F)cc2)CCCCC1=O [MSA-1, (R)-2-(4-fluorophenyl)-2-(methylamino)cyclohexan-1-one MSA-1]
TGA weight loss ([1]; by 100 °C): about 0.01%

CN[C@@]1(c2ccc(F)cc2)CCCCC1=O [Mal-1, (R)-2-(4-fluorophenyl)-2-(methylamino)cyclohexan-1-one Mal-1]
TGA weight loss ([1]; by 100 °C): about 0.16%

CN[C@@]1(c2ccc(F)cc2)CCCCC1=O [Tar-5, (R)-2-(4-fluorophenyl)-2-(methylamino)cyclohexan-1-one Tar-5]
TGA weight loss ([1]; by 100 °C): about 0.26%

CN[C@@]1(c2ccc(F)cc2)CCCCC1=O [Hip-1, (R)-2-(4-fluorophenyl)-2-(methylamino)cyclohexan-1-one Hip-1]
TGA weight loss ([1]; room temperature to 100 °C): about 0.69%

CN[C@@]1(c2ccc(F)cc2)CCCCC1=O [Sulfate-1, (R)-2-(4-fluorophenyl)-2-(methylamino)cyclohexan-1-one Sulfate-1]
TGA weight loss ([1]; by 100 °C, listed as sulfate salt): about 0.08%

CN[C@@]1(c2ccc(F)cc2)CCCCC1=O [Mal-2, (R)-2-(4-fluorophenyl)-2-(methylamino)cyclohexan-1-one Mal-2]
TGA weight loss ([1]; by 100 °C): about 0.11%

CN[C@@]1(c2ccc(F)cc2)CCCCC1=O [Tar-6, (R)-2-(4-fluorophenyl)-2-(methylamino)cyclohexan-1-one Tar-6]
TGA weight loss ([1]; by 100 °C): about 10.67%

CN[C@@]1(c2ccc(F)cc2)CCCCC1=O [Cit-1, (R)-2-(4-fluorophenyl)-2-(methylamino)cyclohexan-1-one Cit-1]
Crystal form conversion [2, 6]: transitioned to a different XRPD pattern

CN[C@@]1(c2ccc(F)cc2)CCCCC1=O [Sulfate-2, (R)-2-(4-fluorophenyl)-2-(methylamino)cyclohexan-1-one Sulfate-2]
Crystal form conversion ([2]; wet cake dried at room temperature): a different XRPD diffractogram was obtained

CN[C@@]1(c2ccc(F)cc2)CCCCC1=O [Mali-1, (R)-2-(4-fluorophenyl)-2-(methylamino)cyclohexan-1-one-L-Mali-1]
TGA weight loss ([1]; room temperature to 100 °C): about 0.70%

CN[C@@]1(c2ccc(F)cc2)CCCCC1=O [Phos-1, (R)-2-(4-fluorophenyl)-2-(methylamino)cyclohexan-1-one Phos-1]
TGA weight loss ([1]; by 100 °C): about 0.11%

CN[C@@]1(c2ccc(F)cc2)CCCCC1=O [1R HCl Form 1, (R)-2-(4-fluorophenyl)-2-(methylamino)cyclohexan-1-one hydrochloride Form 1]
solubility ([3]; 1,4-dioxane, organic solvent or mixture, 1,4-Dioxane, read-out: Solubility): 2.9 to 3.3 mg/mL | solubility ([3]; 2-methf, organic solvent or mixture, 2-MeTHF, read-out: Solubility): < 2.6 mg/mL | solubility ([3]; DCM): 194 to 388 mg/mL | solubility ([3]; DMF): 192 to 384 mg/mL | solubility ([3]; DMSO): >395 mg/mL | solubility ([3]; EtOH): 215 to 431 mg/mL | solubility ([3]; MeOH): >486 mg/mL | solubility ([3]; Water): >464 mg/mL | solubility ([3]; acetone, organic solvent or mixture, Acetone, read-out: Solubility): 8.8 to 9.7 mg/mL | solubility ([3]; acn, organic solvent or mixture, ACN, read-out: Solubility): 32 to 38 mg/mL | solubility ([3]; dcm, organic solvent or mixture, DCM, read-out: Solubility): > 300 mg/mL | solubility ([3]; dmf, organic solvent or mixture, DMF, read-out: Solubility): > 300 mg/mL | solubility ([3]; dmso, organic solvent or mixture, DMSO, read-out: Solubility): > 300 mg/mL | Solubility (in words) ([3]; esters, ketones, ethers, and alkanes): Limited or no solubility | solubility ([3]; etoac, organic solvent or mixture, EtOAc, read-out: Solubility): < 2.6 mg/mL | solubility ([3]; etoh, organic solvent or mixture, EtOH, read-out: Solubility): > 300 mg/mL | solubility ([3]; heptane, organic solvent or mixture, Heptane, read-out: Solubility): < 2.7 mg/mL | solubility ([3]; ipa, organic solvent or mixture, IPA, read-out: Solubility): 50 to 67 mg/mL | solubility ([3]; ipac, read-out: Solubility): < 2.4 mg/mL | solubility ([3]; mek, read-out: Solubility): 3.1 to 3.7 mg/mL | solubility ([3]; meoh, organic solvent or mixture, MeOH, read-out: Solubility): > 300 mg/mL | solubility ([3]; mibk, read-out: Solubility): < 2.7 mg/mL | solubility ([3]; mtbe, organic solvent or mixture, MTBE, read-out: Solubility): < 2.5 mg/mL | solubility ([3]; npa, read-out: Solubility): 51 to 69 mg/mL | solubility ([3]; thf, organic solvent or mixture, THF, read-out: Solubility): < 3 mg/mL | solubility ([3]; toluene, organic solvent or mixture, Toluene, read-out: Solubility): < 2.7 mg/mL | solubility ([3]; water, read-out: Solubility): > 300 mg/mL | DVS moisture sorption behavior ([4]; 25 °C, 0-90-0-90-0% RH): absorbs significant moisture above ~80% RH but readily releases the moisture at lower humidity | Crystal form of post-DVS sample ([4]; post-DVS, kept at 0% RH for 3 days): same crystal form as the starting solids | Sublimation [5]: can be sublimed from a solid phase to gas phase without passing through the liquid phase | Form of material recovered from sublimation ([5]; XRPD): same XRPD pattern as 1R HCl Form 1 | Hydrate/solvate state from TGA ([1]; heated from room temperature to 100 °C): not a hydrate or solvate | TGA weight loss ([1]; room temperature to 100 °C): 0.34%

CN[C@@]1(c2ccc(F)cc2)CCCCC1=O [Glyc-1, (R)-2-(4-fluorophenyl)-2-(methylamino)cyclohexan-1-one Glyc-1]
TGA weight loss ([1]; room temperature to 100 °C): about 1.89%

CN[C@@]1(c2ccc(F)cc2)CCCCC1=O [Tar-4, (R)-2-(4-fluorophenyl)-2-(methylamino)cyclohexan-1-one Tar-4]
Crystal form conversion [2, 6]: converted into Tar-6

CN[C@@]1(c2ccc(F)cc2)CCCCC1=O [Tar-2, (R)-2-(4-fluorophenyl)-2-(methylamino)cyclohexan-1-one Tar-2]
Crystal form conversion [2, 6]: transitioned into Tar-5

CN[C@@]1(c2ccc(F)cc2)CCCCC1=O [Fum-1, (R)-2-(4-fluorophenyl)-2-(methylamino)cyclohexan-1-one Fum-1]
TGA weight loss ([1]; by 100 °C): about 0.66%
